For assay [1], the system named is CD37-positive human chronic lymphocytic leukemia cell line JVM-13. Nature of the assay: Cell growth inhibition by combination with BTK inhibitors (Celltiter-Glo 2.0). In kind it is cell-based. The settings on record: JVM13, 144 h, read-out: D2 (50% cell growth inhibition concentration, BTK inhibitor alone). As to the method:
(§1) During the culture period, the cells were cultured under conditions of 37°C and 5% CO2 in all the cases. The cells thus cultured for 6 days were reacted using Celltiter-Glo 2.0 Cell Viability Assay (Promega Corp,) in accordance with the attached manual, followed by the measurement of the amount of luminescence from each well using a plate reader (Envision 2105 XCite multimode plate reader, PerkinElmer, Inc.). […] Cell growth inhibition rate (%) = (T/C) × 100 [formula]
(§2) From the calculated 50% cell growth inhibition concentrations (anti-CD37 antibody-drug conjugate (1) alone: D1, each BTK inhibitor alone: D2, anti-CD37 antibody-drug conjugate (1) in the combination: d1, each BTK inhibitor drug in the combination: d2), a combination index (CI) was calculated according to the following formula, and assessed as a synergistic effect with CI < 1, an additive effect with CI = 1, and an antagonizing effect with CI > 1 (see Adv. Enzyme Regul. 1984, P. 2227-55) . CI = (d1/D1) + (d2/D2) [formula]
For orientation: ATP-based viability assays read luminescence as a measure of living cells.

Assay [2] relates to CD37-positive human chronic lymphocytic leukemia cell line JVM-2. The description is as above. Type of assay: cell-based. The settings on record: read-out: D2 (50% cell growth inhibition concentration, BTK inhibitor alone). As to the method: as §1, §2
The test system of assay [3] is CD37-positive human chronic lymphocytic leukemia cell line JVM-3. The description is as above. Type of assay: cell-based. The settings on record: read-out: D2 (50% cell growth inhibition concentration, BTK inhibitor alone). The method, then:
as §1, §2

The subject of assay [4] is CD37-positive human chronic lymphocytic leukemia cell line JVM-13. Nature of the assay: Antitumor effect - (4): JVM-13 subcutaneous xenograft. The settings on record: JVM-13 xenograft; for TGI (%): Day 35, grouping Day 14, ADC (1) 0.3 mg/kg i.v. once, rituximab 10 mg/kg i.v. once, bendamustine 12.5 mg/kg i.p. day of grouping and next day, venetoclax 100 mg/kg oral every day, ibrutinib 200 mg/kg oral every day; for CR (%) on final day of observation / Change from baseline (%): ADC (1) 0.3 mg/kg i.v., rituximab 10 mg/kg i.v., bendamustine 12.5 mg/kg i.p. x2, venetoclax 100 mg/kg oral daily, ibrutinib 200 mg/kg oral daily; for Change from baseline (%): tumor volume on Day 35 vs Day 14 baseline.

Read-outs that look alike come from different tables or passages of the source.

Take `C=CC(=O)N1CCC([C@@H]2CCNc3c(C(N)=O)c(-c4ccc(Oc5ccccc5)cc4)nn32)CC1` [Zanubrutinib, zanubrutinib]: the IC50 in assay [1] (JVM-13, 6 days culture) is 2.83 µM; in assay [2] (144 h, JVM-2, 6 days culture), 6.86 µM; in assay [3] (144 h, JVM-3, 6 days culture) it was 17.9 µM.
As for `C=CC(=O)N1CCC[C@@H](n2nc(-c3ccc(Oc4ccccc4)cc3)c3c(N)ncnc32)C1` [Ibrutinib, ibrutinib], the IC50 in assay [1] worked out at 0.58 µM. Moreover, in assay [2] (JVM-2, 144 h), the IC50 was determined as 1.19 µM. In addition, the IC50 in assay [3] (JVM-3, 144 h) came to 0.27 µM. Also, in assay [4], the “TGI (%)” value is reported as -12%, the “CR (%) on final day of observation” value amounted to 0% and the “Change from baseline (%)” value is 776.7%.
As for `CC1(C)CCC(CN2CCN(c3ccc(C(=O)NS(=O)(=O)c4ccc(NCC5CCOCC5)c([N+](=O)[O-])c4)c(Oc4cnc5[nH]ccc5c4)c3)CC2)=C(c2ccc(Cl)cc2)C1` [Venetoclax, venetoclax], in assay [4], the “TGI (%)” value was found to be 25%, the “CR (%) on final day of observation” value is 0% and the “Change from baseline (%)” value came out at 490.9%.
Take `CC#CC(=O)N1CCC[C@H]1c1nc(-c2ccc(C(=O)Nc3ccccn3)cc2)c2c(N)nccn12` [Acalabrutinib, acalabrutinib]: the IC50 stood at 7.15 µM in assay [1] (JVM-13, 6 days culture); 25.8 µM in assay [2] (144 h, JVM-2, 6 days culture); 16.6 µM in assay [3] (144 h, JVM-3, 6 days culture).
